# Data from ChEMBL document CHEMBL2057100, “The optimization of pyridazinone series of glucan synthase inhibitors” (Bioorg Med Chem Lett, 2012).
# What was measured:
# Beta-1,3-glucan synthase = molecular target: T1, Beta-1,3-glucan synthase (Candida albicans, UniProt O13383); assay: Inhibition of 1,3-beta-D-glucan synthase in Candida albicans BWP17 membranes; type: cell membranes
# T1 sequence (O13383 whole entry): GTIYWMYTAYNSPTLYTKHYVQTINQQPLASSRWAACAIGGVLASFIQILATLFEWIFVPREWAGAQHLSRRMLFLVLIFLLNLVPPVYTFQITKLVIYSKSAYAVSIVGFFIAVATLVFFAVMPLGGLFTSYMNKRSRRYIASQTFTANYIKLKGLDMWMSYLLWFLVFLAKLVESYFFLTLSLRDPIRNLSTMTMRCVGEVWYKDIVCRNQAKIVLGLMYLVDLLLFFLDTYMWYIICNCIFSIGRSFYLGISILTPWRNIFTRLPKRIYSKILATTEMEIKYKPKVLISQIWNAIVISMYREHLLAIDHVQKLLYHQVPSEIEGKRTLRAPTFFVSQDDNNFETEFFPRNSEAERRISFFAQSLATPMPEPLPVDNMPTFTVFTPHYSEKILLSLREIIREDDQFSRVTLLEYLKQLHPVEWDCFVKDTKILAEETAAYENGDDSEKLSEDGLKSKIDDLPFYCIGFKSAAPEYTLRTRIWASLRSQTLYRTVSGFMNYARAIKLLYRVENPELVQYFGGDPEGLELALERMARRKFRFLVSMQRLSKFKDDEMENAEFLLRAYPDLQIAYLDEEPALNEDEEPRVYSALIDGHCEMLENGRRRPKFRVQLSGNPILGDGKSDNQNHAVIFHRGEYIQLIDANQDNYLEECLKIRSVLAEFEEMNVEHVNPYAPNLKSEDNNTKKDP
# Candida albicans = assay: Antifungal activity against Candida albicans C693 by broth dilution method; type: functional; settings: read-out: MIC100
# Nakaseomyces glabratus = assay: Antifungal activity against Candida glabrata C624 by broth dilution method; type: functional; settings: read-out: MIC100
# Aspergillus fumigatus = assay: Antifungal activity against Aspergillus fumigatus ND158 by broth dilution method; type: functional; settings: read-out: MEC
# [1] = AUC (0 to 6 hrs) in rat at 10 mg/kg, po; type: ADME, organism-based, Plasma; parameters: time < 6 hr, dose 10 mg/kg, route oral; settings: plasma
# [2] = Cmax in rat at 10 mg/kg, po; type: ADME, organism-based; parameters: dose 10 mg/kg, route oral; settings: in vivo
"IC50 (Beta-1,3-glucan synthase)",MIC (Candida albicans),MIC (Nakaseomyces glabratus),AUC(0-t) at 6 h [1],Cmax [2],Structure (SMILES),minimal effective concentration (Aspergillus fumigatus)
56.7 nM,0.1 µg/mL,< 0.02 µg/mL,,,CC1(COc2c(N3CCN(S(=O)(=O)Cc4ccccc4)CC3)cnn(-c3cccc(Cl)c3)c2=O)CC1,
511 nM,> 33 µg/mL,8.34 µg/mL,,,CC1(COc2c(N3CCN(S(=O)(=O)Cc4ccc(N)c(C(N)=O)c4)CC3)cnn(-c3cccc(Cl)c3)c2=O)CC1,> 33 µg/mL
142 nM,0.63 µg/mL,0.31 µg/mL,,,O=c1c(OC2CCCC2)c(N2CCN(S(=O)(=O)Cc3ccc(Cl)cc3)CC2)cnn1-c1cccc(Cl)c1,
378 nM,0.39 µg/mL,< 0.02 µg/mL,,,O=c1c(OC2CCCC2)c(N2CCN(S(=O)(=O)Cc3ccccc3)CC2)cnn1-c1cccc(Cl)c1,
6760 nM,> 50 µg/mL,1.6 µg/mL,,,O=c1c(OC2CCCc3ncccc32)c(N2CCN(S(=O)(=O)Cc3ccccc3)CC2)cnn1-c1cccc(Cl)c1 (stereo not given),
637 nM,> 33 µg/mL,0.52 µg/mL,640 ng·h/mL,440 ng/mL,CC1(COc2c(N3CCN(S(=O)(=O)Cc4ccc(N)c(C(F)(F)F)c4)CC3)cnn(-c3cccc(Cl)c3)c2=O)CC1,> 33 µg/mL
87.4 nM,0.26 µg/mL,0.06 µg/mL,,,CN(C)c1ccc(CS(=O)(=O)N2CCN(c3cnn(-c4cccc(Cl)c4)c(=O)c3OCC3(C)CC3)CC2)cc1,16.7 µg/mL
72.9 nM,0.1 µg/mL,< 0.02 µg/mL,,,O=c1c(OC2CCCC2)c(N2CCN(S(=O)(=O)Cc3cccc(F)c3)CC2)cnn1-c1cc(F)cc(F)c1,
239 nM,2.08 µg/mL,0.06 µg/mL,5200 ng·h/mL,1700 ng/mL,CC1(COc2c(N3CCN(S(=O)(=O)Cc4cccnc4N)CC3)cnn(-c3cccc(Cl)c3)c2=O)CC1,8.4 µg/mL
565 nM,25 µg/mL,0.78 µg/mL,,,CC(C)(O)CCOc1c(N2CCN(S(=O)(=O)Cc3ccccc3)CC2)cnn(-c2cc(F)cc(F)c2)c1=O,
631 nM,> 33 µg/mL,16.7 µg/mL,2100 ng·h/mL,700 ng/mL,CC(C)c1cc(CS(=O)(=O)N2CCN(c3cnn(-c4cccc(Cl)c4)c(=O)c3OCC3(C)CC3)CC2)ccc1N,> 33 µg/mL
69 nM,0.13 µg/mL,< 0.02 µg/mL,1100 ng·h/mL,330 ng/mL,CC1(COc2c(N3CCN(S(=O)(=O)Cc4ccc(N)c(Cl)c4)CC3)cnn(-c3cc(F)cc(F)c3)c2=O)CC1,0.52 µg/mL
73.5 nM,0.52 µg/mL,0.13 µg/mL,5700 ng·h/mL,1400 ng/mL,CC1(COc2c(N3CCN(S(=O)(=O)Cc4cccc(N)c4)CC3)cnn(-c3cccc(Cl)c3)c2=O)CC1,1.04 µg/mL
91.9 nM,0.78 µg/mL,0.2 µg/mL,,,Nc1ccc(CS(=O)(=O)N2CCN(c3cnn(-c4cccc(Cl)c4)c(=O)c3OC3CCCC3)CC2)cc1,
105 nM,0.52 µg/mL,0.06 µg/mL,13100 ng·h/mL,3300 ng/mL,COc1cc(CS(=O)(=O)N2CCN(c3cnn(-c4cccc(Cl)c4)c(=O)c3OCC3(C)CC3)CC2)ccc1N,2.08 µg/mL
125 nM,1.04 µg/mL,0.13 µg/mL,14500 ng·h/mL,3500 ng/mL,Cc1cc(CS(=O)(=O)N2CCN(c3cnn(-c4cc(F)cc(F)c4)c(=O)c3OCC3(C)CC3)CC2)ccc1N,4.2 µg/mL
91.7 nM,2.08 µg/mL,0.06 µg/mL,3100 ng·h/mL,1000 ng/mL,CC1(COc2c(N3CCN(S(=O)(=O)Cc4ccc(N)nc4)CC3)cnn(-c3cccc(Cl)c3)c2=O)CC1,8.4 µg/mL
275 nM,16.7 µg/mL,1.04 µg/mL,,,CC1(COc2c(N3CCN(S(=O)(=O)Cc4ccnc(N)c4)CC3)cnn(-c3cccc(Cl)c3)c2=O)CC1,8.4 µg/mL
351 nM,> 50 µg/mL,0.39 µg/mL,,,O=c1c(OC2CCCC2)c(N2CCN(S(=O)(=O)Cc3cc(Cl)cc(Cl)c3)CC2)cnn1-c1cccc(Cl)c1,

Structure (SMILES),"IC50 (Beta-1,3-glucan synthase)",MIC (Candida albicans),MIC (Nakaseomyces glabratus),AUC(0-t) at 6 h [1],Cmax [2],minimal effective concentration (Aspergillus fumigatus)
Cc1cc(CS(=O)(=O)N2CCN(c3cnn(-c4cccc(Cl)c4)c(=O)c3OCC3(C)CC3)CC2)ccc1N,143 nM,1.04 µg/mL,0.13 µg/mL,15000 ng·h/mL,3000 ng/mL,2.08 µg/mL
